# From patent US10696671B2, “Imidazo[1,2-A]pyridine derivatives, methods for preparing the same and use thereof” (Jeil Pharmaceutical Co., Ltd., priority 2016, dated 2020)
# Target: T1, proton pump (H+/K+-ATPase), porcine gastric vesicles (Sus scrofa, UniProt P19156)
# T1 construct: reaction buffer (50 mmol/L Tris-Hepes buffer, pH 6.4) containing porcine gastric vesicles; from tissue; host or cells: porcine gastric mucosa (gastric vesicles prepared by centrifugation)
# Assay: Inhibitory effects against proton pump (H+/K+-ATPase) activity, malachite green phosphate assay
# Assay type: biochemical
# Details: pH 6.4, 37° C., K+-dependent activity
# Experimental: Test Example 1: Preparation of Gastric Vesicles
# Gastric vesicles used in the experiment were prepared by separation from porcine gastric mucosa according to a centrifugation method [Saccomani G, et al., A Nonelectrogenic H^+ Pump in Plasma Membranes of Hog Stomach, J Biol Chem., 1976, 251 (23), 7690-8]. Next, the protein content of the gastric vesicles was quantified using a bicinchoninic acid kit [Smith P K, et al., Measurement of protein using bicinchoninic acid, Anal Biochem., 1985, 150 (1), 76-85)].
# Test Example 2: Measurement of Inhibitory Effects Against Proton Pump (H^+/K^+-ATPase) Activity
# The inhibitory effects of the compounds against proton pump activity were calculated based on the pump activity determined in the presence of K^+ ions excluding the pump activity determined in the absence of K^+ ions. The inhibitory effects against proton pump activity were measured in 96-well plates, and all reactions were performed with a reaction volume of […] at 37° C. Specifically, 10 μm of valinomycin and each concentration of each compound were pre-incubated in a reaction buffer (50 mmol/L Tris-Hepes buffer, pH 6.4) containing porcine gastric vesicles for 15 minutes. For negative and positive control groups, 1% DMSO was added to buffer, and for test groups, 1% DMSO and a dilution of each concentration of each compound were added. Next, 0.2 mmol/L of adenosine triphosphate (ATP) was added to the reaction buffer and incubated at 37° C. for 40 minutes. After completion of the incubation, a malachite green solution was added to the reaction buffer and incubated for 30 minutes, and the amount of inorganic phosphate in the reaction buffer was measured by colorimetry using a malachite green phosphate assay Kit (Bioassay Systems). For colorimetry, the OD (optical density) at 620 nm was measured using a microplate reader [Synergy H4, hybrid multimode microplate reader, BioTek]. The percent inhibition of proton pump (H^+/K^+-ATPase) was determined based on the OD value of the control group and the OD values of various concentrations of the test compounds, and the IC50 of each test compound was calculated using the Logistic 4-parameter function of Sigmaplot 8.0 program.
# T1 sequence (P19156 2-1034 limits assumed): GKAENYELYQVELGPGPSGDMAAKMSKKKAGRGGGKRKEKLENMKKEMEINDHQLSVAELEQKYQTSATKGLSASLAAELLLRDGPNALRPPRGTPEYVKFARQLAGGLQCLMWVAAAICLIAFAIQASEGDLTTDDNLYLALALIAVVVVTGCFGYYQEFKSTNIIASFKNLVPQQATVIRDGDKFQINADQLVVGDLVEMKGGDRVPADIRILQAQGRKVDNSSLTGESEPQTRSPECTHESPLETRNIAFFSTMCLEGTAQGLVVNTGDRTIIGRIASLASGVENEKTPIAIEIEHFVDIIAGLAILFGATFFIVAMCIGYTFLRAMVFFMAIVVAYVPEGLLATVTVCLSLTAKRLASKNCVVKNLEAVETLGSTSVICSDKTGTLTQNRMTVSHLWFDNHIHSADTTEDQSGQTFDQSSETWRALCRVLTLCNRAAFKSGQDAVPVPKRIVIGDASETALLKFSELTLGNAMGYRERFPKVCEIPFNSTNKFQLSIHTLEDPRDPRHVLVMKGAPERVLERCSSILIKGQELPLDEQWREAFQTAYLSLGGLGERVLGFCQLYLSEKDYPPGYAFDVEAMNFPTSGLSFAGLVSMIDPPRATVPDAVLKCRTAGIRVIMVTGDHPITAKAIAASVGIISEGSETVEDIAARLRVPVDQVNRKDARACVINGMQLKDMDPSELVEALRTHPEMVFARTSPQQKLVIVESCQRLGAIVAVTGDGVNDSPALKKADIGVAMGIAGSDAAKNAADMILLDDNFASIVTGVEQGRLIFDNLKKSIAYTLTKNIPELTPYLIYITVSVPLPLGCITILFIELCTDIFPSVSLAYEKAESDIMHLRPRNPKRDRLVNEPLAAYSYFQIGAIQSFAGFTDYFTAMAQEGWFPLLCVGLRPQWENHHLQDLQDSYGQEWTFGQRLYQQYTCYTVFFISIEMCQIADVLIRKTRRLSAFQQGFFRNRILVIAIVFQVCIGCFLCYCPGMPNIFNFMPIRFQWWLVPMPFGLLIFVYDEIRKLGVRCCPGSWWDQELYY
# T1 sequence (P18434 whole entry partner): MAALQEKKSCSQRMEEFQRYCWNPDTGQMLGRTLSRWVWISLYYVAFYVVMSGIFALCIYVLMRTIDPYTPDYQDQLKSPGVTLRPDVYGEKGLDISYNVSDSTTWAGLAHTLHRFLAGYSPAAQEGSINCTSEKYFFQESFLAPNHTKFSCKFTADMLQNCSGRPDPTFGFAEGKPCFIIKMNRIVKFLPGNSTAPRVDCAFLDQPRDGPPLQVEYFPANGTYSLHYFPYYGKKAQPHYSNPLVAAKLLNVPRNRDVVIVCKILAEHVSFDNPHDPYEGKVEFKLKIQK
row,SMILES,IC50
1,"CC(=O)OC1CN(C(=O)c2cc(NCc3c(C)cccc3C)c3nc(C)c(C)n3c2)C1 [Example 2, 1-{8-[(2,6-dimethylbenzyl)amino]-2,3-dimethylimidazo[1,2-α]pyridine-6-carbonyl}azetidin-3-yl acetate]",0.128 µM
2,"COCCOC1CN(C(=O)c2cc(NCc3c(C)cccc3C)c3nc(C)c(C)n3c2)C1 [Example 5, {8-[(2,6-dimethylbenzyl)amino]-2,3-dimethylimidazo[1,2-α]pyridin-6-yl}[3-(2-methoxyethoxy)azetidin-1-yl]methanone]",0.117 µM
3,"Cc1cccc(C)c1CNc1cc(C(=O)N2CC(F)(CO)C2)cn2c(C)c(C)nc12 [Example 13, {8-[(2,6-dimethylbenzyl)amino]-2,3-dimethylimidazo[1,2-α]pyridin-6-yl}[3-fluoro-3-(hydroxymethyl)azetidin-1-yl]methanone]",0.119 µM
4,"Cc1cccc(C)c1CNc1cc(C(=O)N2CC(C)(CO)C2)cn2c(C)c(C)nc12 [Example 14, {8-[(2,6-dimethylbenzyl)amino]-2,3-dimethylimidazo[1,2-α]pyridin-6-yl}[3-(hydroxymethyl)-3-methylazetidin-1-yl]methanone]",0.104 µM
5,"Cc1cccc(C)c1CNc1cc(C(=O)N2CC(C(C)(C)O)C2)cn2c(C)c(C)nc12 [Example 16, {8-[(2,6-dimethylbenzyl)amino]-2,3-dimethylimidazo[1,2-α]pyridin-6-yl}[3-(2-hydroxypropan-2-yl)azetidin-1-yl]methanone]",0.122 µM
6,"Cc1cccc(C)c1CNc1cc(C(=O)N2CCC2CO)cn2c(C)c(C)nc12 (stereo not drawn) [Example 17, {8-[(2,6-dimethylbenzyl)amino]-2,3-dimethylimidazo[1,2-α]pyridin-6-yl}[2-(hydroxymethyl)azetidin-1-yl]methanone]",0.18 µM
7,"CC(=O)C1CN(C(=O)c2cc(NCc3c(C)cccc3C)c3nc(C)c(C)n3c2)C1 [Example 18, 1-{1-[8-({2,6-dimethylbenzyl}amino)-2,3-dimethylimidazo[1,2-α]pyridine-6-carbonyl]azetidin-3-yl}ethanone]",0.14 µM
8,"Cc1cccc(C)c1CNc1cc(C(=O)N2CC(S(C)(=O)=O)C2)cn2c(C)c(C)nc12 [Example 19, {8-[(2,6-dimethylbenzyl)amino]-2,3-dimethylimidazo[1,2-α]pyridin-6-yl}[3-(methylsulfonyl)azetidin-1-yl]methanone]",0.117 µM

# Compounds with a lower IC50, results first:
row,IC50,SMILES
1,0.09 µM,"COC1CN(C(=O)c2cc(NCc3c(C)cccc3C)c3nc(C)c(C)n3c2)C1 [Example 3, {8-[(2,6-dimethylbenzyl)amino]-2,3-dimethylimidazo[1,2-α]pyridin-6-yl}(3-methoxyazetidin-1-yl)methanone]"
2,0.093 µM,"CCOC1CN(C(=O)c2cc(NCc3c(C)cccc3C)c3nc(C)c(C)n3c2)C1 [Example 4, {8-[(2,6-dimethylbenzyl)amino]-2,3-dimethylimidazo[1,2-α]pyridin-6-yl}(3-ethoxyazetidin-1-yl)methanone]"
3,0.048 µM,"COC(=O)C1CN(C(=O)c2cc(NCc3c(C)cccc3C)c3nc(C)c(C)n3c2)C1 [Example 10, methyl 1-{8-[(2,6-dimethylbenzyl)amino]-2,3-dimethylimidazo[1,2-α]pyridine-6-carbonyl}azetidine-3-carboxylate]"
4,0.065 µM,"COCC1CN(C(=O)c2cc(NCc3c(C)cccc3C)c3nc(C)c(C)n3c2)C1 [Example 12, {8-[(2,6-dimethylbenzyl)amino]-2,3-dimethylimidazo[1,2-α]pyridin-6-yl}[3-(methoxymethyl)azetidin-1-yl]methanone]"
5,0.072 µM,"Cc1cccc(C)c1CNc1cc(C(=O)N2CC(C(C)O)C2)cn2c(C)c(C)nc12 (stereo not drawn) [Example 15, {8-[(2,6-dimethylbenzyl)amino]-2,3-dimethylimidazo[1,2-α]pyridin-6-yl}[3-(1-hydroxyethyl)azetidin-1-yl]methanone]"
6,0.046 µM,"Cc1cccc(C)c1CNc1cc(C(=O)N2CC(CCO)C2)cn2c(C)c(C)nc12 [Example 20, {8-[(2,6-dimethylbenzyl)amino]-2,3-dimethylimidazo[1,2-α]pyridin-6-yl}[3-(2-hydroxyethyl)azetidin-1-yl]methanone]"
